Where “and” joins values, the source holds several entries; their conditions need not be identical. Equal values may be shown once.
Experiments:
hPDE5 mutants [1] = target: T1, hPDE5 mutants (Homo sapiens, UniProt O76074); experiment: GFP FACS analysis of hPDE5 mutant library clones in NIH3T3 cell pools; conditions: for Fluorescence intensity Sildenafil / Fluorescence intensity Tadalafil / Fluorescence intensity Vardenafil / Fluorescence intensity DMSO: median GFP fluorescence by FACS; for Fluorescence intensity Sildenafil: 10 μM Sildenafil; for Fluorescence intensity Tadalafil: 10 μM Tadalafil; for Fluorescence intensity Vardenafil: 10 μM Vardenafil; for Fluorescence intensity DMSO: vehicle DMSO (no ligand); for Stabilization ratio: GFP intensity 10 μM vardenafil vs DMSO
hPDE5 mutants [2] = experiment: as above
hPDE5 mutants [3] = target: T1, hPDE5 mutants; experiment: GFP MFI by FACS in HCT116 cells transduced with hPDE5 constructs; type: cell-based
Procedure: (§1) Desirable qualities of a DD include, low expression of the SRE in the absence of ligand and ligand dependent stabilization of the SRE. Constructs were generated using DDs linked to GFP using an SG linker. […] The mean fluorescence intensity (MFI) of GFP was analyzed by FACS. […] Destabilizing mutation coefficient less than 1 are desirable.
(§2) Mean fluorescence intensity (MFI) was measured by FACS. […] Destabilizing mutation coefficient ratios less than 1 are desirable.
(§3) Mean fluorescence intensity (MFI) was measured by FACS. […] Destabilizing mutation co-efficient ratios less than 1 are desirable.
(§4) Mean fluorescence intensity (MFI) was measured by FACS. […] Destabilizing mutation coefficient less than 1 are desirable.
as §4
(§5) Mean fluorescence intensity (MFI) of GFP was measured by FACS.
(§6) Mean fluorescence intensity (MFI) was measured by FACS.
(§7) The media containing the ligand was removed and fresh media without the ligand was added.
(§8) The properties of the DDs were analyzed in the presence and absence of ligands via FACS as previously described.
(§9) GFP fluorescence was measured by FACS.
(§10) The properties of the DDs were analyzed via FACS both in the presence and absence of ligands.
as §9

hPDE5 mutants [4] = experiment: as above; type: cell-based, human
Procedure: as §1, §2, §3, §4, §4, §5, §6, §7, §8, §9, §10, §9

[5] = DMSO (no ligand), SDF series, experiment 1
[6] = DMSO (no ligand), TDF series, experiment 1
[7] = DMSO (no ligand), VDF series, experiment 1
[8] = SDF 100 μM (set as 100%), experiment 1
[9] = TDF 100 μM (set as 100%), experiment 1
[10] = VDF 100 μM (set as 100%), experiment 1
[11] = GFP intensity ligand treated vs DMSO, direct comparison of clones

## LibC000020: hPDE5 (Amino acid 535-860 of WT, A722V, F755L, M760I), DD generated by random mutagenesis
hPDE5 mutants [1]; GFP, NIH3T3 cell pools, 10 μM vardenafil 24 hr, experiment 1
  MFI 10 μM VDF: 1459
hPDE5 mutants [1]; GFP, NIH3T3 cell pools, no ligand (DMSO), experiment 1
  MFI DMSO: 332
hPDE5 mutants [1]; SDF 3.704 μM, experiment 1
  GFP FACS analysis (MFI): 376
hPDE5 mutants [1]; SDF 11.111 μM, experiment 1
  GFP FACS analysis (MFI): 373
hPDE5 mutants [1]; SDF 33.333 μM, experiment 1
  GFP FACS analysis (MFI): 407
hPDE5 mutants [1]; SDF 100 μM, experiment 1
  GFP FACS analysis (MFI): 513
hPDE5 mutants [1]; TDF 3.704 μM, experiment 1
  GFP FACS analysis (MFI): 342
hPDE5 mutants [1]; TDF 11.111 μM, experiment 1
  GFP FACS analysis (MFI): 371
hPDE5 mutants [1]; TDF 33.333 μM, experiment 1
  GFP FACS analysis (MFI): 440
hPDE5 mutants [1]; TDF 100 μM, experiment 1
  GFP FACS analysis (MFI): 509
hPDE5 mutants [1]; VDF 1.235 μM, experiment 1
  GFP FACS analysis (MFI): 399
hPDE5 mutants [1]; VDF 3.704 μM, experiment 1
  GFP FACS analysis (MFI): 733
hPDE5 mutants [1]; VDF 11.111 μM, experiment 1
  GFP FACS analysis (MFI): 1395
hPDE5 mutants [1]; VDF 33.333 μM, experiment 1
  GFP FACS analysis (MFI): 2144
hPDE5 mutants [1]; VDF 100 μM, experiment 1
  GFP FACS analysis (MFI): 2499
hPDE5 mutants [1]; direct comparison of clones
  Fluorescence intensity Sildenafil: 513
  Fluorescence intensity Tadalafil: 509
  Fluorescence intensity Vardenafil: 2499
  Fluorescence intensity DMSO: 273
hPDE5 mutants [2]; [5]
  GFP FACS analysis (MFI): 338
hPDE5 mutants [2]; [6]
  GFP FACS analysis (MFI): 243
hPDE5 mutants [2]; [7]
  GFP FACS analysis (MFI): 238
hPDE5 mutants [2]; SDF 1.235 μM, experiment 1
  GFP FACS analysis (MFI): 371
  Percent stabilization effect: 18.9%
hPDE5 mutants [2]; SDF 3.704 μM, experiment 1
  Percent stabilization effect: 21.7%
hPDE5 mutants [2]; SDF 11.111 μM, experiment 1
  Percent stabilization effect: 20.0%
hPDE5 mutants [2]; SDF 33.333 μM, experiment 1
  Percent stabilization effect: 39.4%
hPDE5 mutants [2]; [8]
  Percent stabilization effect: 100.0%
hPDE5 mutants [2]; TDF 1.235 μM, experiment 1
  GFP FACS analysis (MFI): 337
  Percent stabilization effect: 35.3%
hPDE5 mutants [2]; TDF 3.704 μM, experiment 1
  Percent stabilization effect: 37.2%
hPDE5 mutants [2]; TDF 11.111 μM, experiment 1
  Percent stabilization effect: 48.1%
hPDE5 mutants [2]; TDF 33.333 μM, experiment 1
  Percent stabilization effect: 74.1%
hPDE5 mutants [2]; [9]
  Percent stabilization effect: 100.0%
hPDE5 mutants [2]; VDF 1.235 μM, experiment 1
  Percent stabilization effect: 7.1%
hPDE5 mutants [2]; VDF 3.704 μM, experiment 1
  Percent stabilization effect: 21.9%
hPDE5 mutants [2]; VDF 11.111 μM, experiment 1
  Percent stabilization effect: 51.2%
hPDE5 mutants [2]; VDF 33.333 μM, experiment 1
  Percent stabilization effect: 84.3%
hPDE5 mutants [2]; [10]
  Percent stabilization effect: 100.0%

## OT-001075: hPDE5 wildtype construct, catalytic domain linked to AcGFP, control
hPDE5 mutants [3]; 10 μM, 48 h, HCT-116
  Sildenafil Stabilization ratio: 1.25
  Vardenafil Stabilization ratio: 1.15
hPDE5 mutants [3]; GFP, 10 μM Sildenafil 48 h, HCT-116
  MFI Sildenafil: 53736
hPDE5 mutants [3]; GFP, 10 μM Vardenafil 48 h, HCT-116
  MFI Vardenafil: 49344
hPDE5 mutants [3]; hotspot constructs, 1 μM Vardenafil
  Vardenafil Stabilization ratio: 1.83
hPDE5 mutants [3]; hotspot constructs, 10 μM Sildenafil
  Sildenafil Stabilization ratio: 0.22
hPDE5 mutants [3]; hotspot constructs, HCT116
  GFP by FACS, Sildenafil 10 μM: 219
  GFP by FACS, Vardenafil 1 μM: 294
hPDE5 mutants [4]; GFP, DMSO 48 h, HCT-116
  MFI DMSO: 42973
hPDE5 mutants [4]; hotspot constructs, HCT116, DMSO control of Sildenafil
  GFP by FACS, Sildenafil 0 μM (DMSO): 989
hPDE5 mutants [4]; hotspot constructs, HCT116, DMSO control of Vardenafil
  GFP by FACS, Vardenafil 0 μM (DMSO): 161
hPDE5 mutants [1]; experiment 1
  Stabilization ratio: 1.6 and 1.5 and 1.4
hPDE5 mutants [1]; experiment 2
  Stabilization ratio: 1.5
hPDE5 mutants [1]; [11]
  Stabilization ratio Sildenafil: 1.05
  Stabilization ratio Tadalafil: 1.50
  Stabilization ratio Vardenafil: 1.78
hPDE5 mutants [1]; GFP, cell pools, 10 μM vardenafil 24 hr, experiment 2
  Mean fluorescence intensity (MFI) 10 μM VDF: 45616 and 43134
hPDE5 mutants [1]; GFP, cell pools, no ligand (DMSO), experiment 2
  Mean fluorescence intensity (MFI) DMSO: 30404 and 29006
hPDE5 mutants [1]; direct comparison of clones
  Fluorescence intensity Sildenafil: 7082
  Fluorescence intensity Tadalafil: 10100
  Fluorescence intensity Vardenafil: 12000
  Fluorescence intensity DMSO: 6732
hPDE5 mutants [2]; [5]
  GFP FACS analysis (MFI): 3140
hPDE5 mutants [2]; [6]
  GFP FACS analysis (MFI): 9511
hPDE5 mutants [2]; [7]
  GFP FACS analysis (MFI): 7545
hPDE5 mutants [2]; SDF 1.235 μM, experiment 1
  GFP FACS analysis (MFI): 5740
  Percent stabilization effect: 66.0%
hPDE5 mutants [2]; SDF 3.704 μM, experiment 1
  GFP FACS analysis (MFI): 6480
  Percent stabilization effect: 84.7%
hPDE5 mutants [2]; SDF 11.111 μM, experiment 1
  GFP FACS analysis (MFI): 6848
  Percent stabilization effect: 94.1%
hPDE5 mutants [2]; SDF 11.111 μM, experiment 2
  Percent stabilization effect: 49.7% and 88.2%
hPDE5 mutants [2]; SDF 33.333 μM, experiment 1
  GFP FACS analysis (MFI): 7025
  Percent stabilization effect: 98.6%
hPDE5 mutants [2]; SDF 33.333 μM, experiment 2
  Percent stabilization effect: 79.3% and 96.0%
hPDE5 mutants [2]; [8]
  Percent stabilization effect: 100.0%
hPDE5 mutants [2]; SDF 100 μM (set as 100%), experiment 2
  Percent stabilization effect: 100.0%
hPDE5 mutants [2]; SDF 100 μM, experiment 1
  GFP FACS analysis (MFI): 7082
hPDE5 mutants [2]; SDF 100 μM, experiment 2
  GFP FACS analysis (MFI): 39638 and 65696
hPDE5 mutants [2]; TDF 1.235 μM, experiment 1
  GFP FACS analysis (MFI): 6211
  Percent stabilization effect: −560.3%
hPDE5 mutants [2]; TDF 3.704 μM, experiment 1
  GFP FACS analysis (MFI): 7039
  Percent stabilization effect: −419.7%
hPDE5 mutants [2]; TDF 11.111 μM, experiment 1
  GFP FACS analysis (MFI): 7388
  Percent stabilization effect: −360.4%
hPDE5 mutants [2]; TDF 11.111 μM, experiment 2
  GFP FACS analysis (MFI): 89646 and 143351
  Percent stabilization effect: 101.2% and 136.4%
hPDE5 mutants [2]; TDF 33.333 μM, experiment 1
  GFP FACS analysis (MFI): 7688
  Percent stabilization effect: −309.5%
hPDE5 mutants [2]; TDF 33.333 μM, experiment 2
  GFP FACS analysis (MFI): 97813 and 136420
  Percent stabilization effect: 110.9% and 123.3%
hPDE5 mutants [2]; [9]
  Percent stabilization effect: 100.0%
hPDE5 mutants [2]; TDF 100 μM (set as 100%), experiment 2
  Percent stabilization effect: 100.0%
hPDE5 mutants [2]; TDF 100 μM, experiment 1
  GFP FACS analysis (MFI): 10100
hPDE5 mutants [2]; TDF 100 μM, experiment 2
  GFP FACS analysis (MFI): 88657 and 124011
hPDE5 mutants [2]; VDF 1.235 μM, experiment 1
  GFP FACS analysis (MFI): 7393
  Percent stabilization effect: −3.4%
hPDE5 mutants [2]; VDF 1.235 μM, experiment 2
  GFP FACS analysis (MFI): 32753 and 47543
  Percent stabilization effect: 46.3% and 46.8%
hPDE5 mutants [2]; VDF 3.704 μM, experiment 1
  GFP FACS analysis (MFI): 7592
  Percent stabilization effect: 1.1%
hPDE5 mutants [2]; VDF 3.704 μM, experiment 2
  GFP FACS analysis (MFI): 36347 and 49859
  Percent stabilization effect: 52.0% and 52.6%
hPDE5 mutants [2]; VDF 11.111 μM, experiment 1
  GFP FACS analysis (MFI): 7964
  Percent stabilization effect: 9.4%
hPDE5 mutants [2]; VDF 11.111 μM, experiment 2
  GFP FACS analysis (MFI): 39279 and 50082
  Percent stabilization effect: 56.6% and 53.2%
hPDE5 mutants [2]; VDF 33.333 μM, experiment 1
  GFP FACS analysis (MFI): 8854
  Percent stabilization effect: 29.4%
hPDE5 mutants [2]; VDF 33.333 μM, experiment 2
  GFP FACS analysis (MFI): 44931 and 53578
  Percent stabilization effect: 65.5% and 62.0%
hPDE5 mutants [2]; [10]
  Percent stabilization effect: 100.0%
hPDE5 mutants [2]; VDF 100 μM (set as 100%), experiment 2
  Percent stabilization effect: 100.0%
hPDE5 mutants [2]; VDF 100 μM, experiment 1
  GFP FACS analysis (MFI): 12000
hPDE5 mutants [2]; VDF 100 μM, experiment 2
  GFP FACS analysis (MFI): 66821 and 68646
hPDE5 mutants [2]; after treatment with sildenafil or vardenafil, NIH3T3
  Fold increase in MFI: ~1.5 fold
